In CN102911068A, “左旋肉碱l-苹果酸盐及其制备方法与用途” (GUANGZHOU AOHAI BIO-TECHNOLOGY CO LTD, priority 2011, dated 2013):

Key:
[1] = Critical relative humidity (CRH) from moisture absorption equilibrium curve; assay type: physicochemical
[2] = Angle of repose (powder poured through a funnel) / flowability; assay type: physicochemical
[3] = tested on: obese model rats [肥胖模型大鼠]; experiment: Weight-loss efficacy test in obese model SD rats (diet-induced obesity, with swimming exercise); assay type: in vivo, rat; conditions: 30 days; for body fat (testicular and perirenal fat pads) / body weight increase / fat/body ratio: gavage
[4] = background art, cited from earlier work
[5] = background art; cited from earlier work
[6] = high dose + exercise (30x recommended human dose; Ex. 2 at maximum dissolved concentration; Ex. 1/2/3/4: 0.96/0.36/1.02/1.08 g in 2 ml water), * (P<0.05 vs model control): all
[7] = L-carnitine tartrate control + exercise, 0.13 g in 2 ml water, swimming 30 min, 5 times/week, * (P<0.05 vs model control) printed

For C[N+](C)(C)CC(O)CC(=O)O (centres unmarked) [实施例1药, 左旋肉碱L-苹果酸盐], the “critical relative humidity CRH” value ([1]; 25 °C, saturated salt solutions in desiccator) was 87%, the “moisture absorption (hygroscopicity)” value ([1]; words, judged from CRH at 25 °C) was “不易吸潮” and the angle of repose ([2]; solid powder flowing from funnel) was 30 °. The flowability ([2]; words, judged from angle of repose) was “流动性较好”, the “body fat (testicular and perirenal fat pads)” value (“body fat” below) [3, 6] was 5.9 ± 4.5 g and the body weight increase [3, 6] was 15.2 ± 7.9 g. For the same compound, the fat/body ratio [3, 6] was 0.02±0.02, the body weight increase ([3]; low dose + exercise (5x recommended human dose; Ex. 1/2/3/4: 0.16/0.18/0.17/0.18 g in 2 ml water), * (P<0.05 vs model control): Ex. 1, 3, 4) was 19.3 ± 10.2 g and the “body fat” value ([3]; low dose + exercise (5x recommended human dose; Ex. 1/2/3/4: 0.16/0.18/0.17/0.18 g in 2 ml water), * (P<0.05 vs model control): Ex. 2, 3, 4) was 7.3 ± 4.1 g. The fat/body ratio ([3]; low dose + exercise (5x recommended human dose; Ex. 1/2/3/4: 0.16/0.18/0.17/0.18 g in 2 ml water), no * printed) was 0.03±0.01 and the “difference between results of Example 1, 2, 3 and 4 drugs” value ([3]; words, obese rats) was “无明显差异”.
In the case of C[N+](C)(C)CC(O)CC(=O)O (centres unmarked) [左旋肉碱酒石酸盐, reference compound], the hygroscopicity ([4]; words) is listed as “仍有较大的吸湿性”, the “relative humidity at which deliquescence occurs” value [4] is listed as greater than 60% and the “body fat” value ([3]; L-carnitine tartrate control + exercise, 0.13 g in 2 ml water, swimming 30 min, 5 times/week) is listed as 8.2 ± 4.3 g. The body weight increase [3, 7] was 21.3 ± 14.2 g and the fat/body ratio [3, 7] was 0.03±0.01.
In the case of CC(=O)[O-].CC(=O)[O-].[Ca+2] [醋酸钙], the LD50 [5] is given as less than 5000 mg/kg.
